Experimental data taken from ChEMBL document CHEMBL1143545, “A proof of the specificity of kanamycin-ribosomal RNA interaction with designed synthetic analogs and the antibacterial activity” (2005).
Values after ≈ are worked out from the molar mass of the structure shown. Each block holds one molecule with its values, some of them ahead of it.

Key:
Assay type in all cases: functional
Bacillus subtilis = experiment: Minimal inhibitory concentration against Bacillus subtilis PCI219 was determined by 2-fold agar dilution streak method at 37: C for 18 h
Staphylococcus aureus = experiment: Minimal inhibitory concentration against Staphylococcus aureus FDA209P was determined by 2-fold agar dilution streak method at 37: C for 18 h
Klebsiella pneumoniae = experiment: Minimal inhibitory concentration against Klebsiella pneumoniae PCI 602 was determined by 2-fold agar dilution streak method at 37: C for 18 h
Pseudomonas aeruginosa [1] = experiment: Minimal inhibitory concentration against Pseudomonas aeruginosa GN315 was determined by 2-fold agar dilution streak method at 37: C for 18 h
Bacillus cereus = experiment: Minimal inhibitory concentration against Bacillus cereus ATCC 10702 was determined by 2-fold agar dilution streak method at 37: C for 18 h; details: ATCC 10702, 18 h
Pseudomonas aeruginosa [2] = experiment: Minimal inhibitory concentration against Pseudomonas aeruginosa A3 was determined by 2-fold agar dilution streak method at 37: C for 18 h
Pseudomonas aeruginosa [3] = experiment: Minimal inhibitory concentration against Pseudomonas aeruginosa 21-75 was determined by 2-fold agar dilution streak method at 37: C for 18 h
Serratia marcescens = experiment: Minimal inhibitory concentration against Serratia marcescens was determined by 2-fold agar dilution streak method at 37: C for 18 h
Escherichia coli [4] = experiment: Minimal inhibitory concentration against Escherichia coli JR66/W677 was determined by 2-fold agar dilution streak method at 37: C for 18 h
Escherichia coli [5] = experiment: Minimal inhibitory concentration against Escherichia coli K-12 ML1410 was determined by 2-fold agar dilution streak method at 37: C for 18 h
Micrococcus luteus = experiment: Minimal inhibitory concentration against Micrococcus luteus FDA16 was determined by 2-fold agar dilution streak method at 37: C for 18 h
Escherichia coli [6] = experiment: Minimal inhibitory concentration against Escherichia coli K-12 was determined by 2-fold agar dilution streak method at 37: C for 18 h; details: K-12, 18 h
[7] = tested on: Mycolicibacterium smegmatis; experiment: Minimal inhibitory concentration against Mycobacterium smegmatis ATCC607 was determined by 2-fold agar dilution streak method at 37C for 42h

SMILES: NCC1CCC(N)C(OC2C(N)CC(N=C(N)N)C(OC3OC(CO)C(O)C(N)C3O)C2O)O1 (stereo not given)
- MIC (Bacillus subtilis): 0.78 µg/mL (≈ 1.58 µM)
- MIC (Staphylococcus aureus): 0.78 µg/mL (≈ 1.58 µM)
- MIC (Klebsiella pneumoniae): > 100 µg/mL
- MIC (Pseudomonas aeruginosa [1]): > 100 µg/mL
- MIC (Bacillus cereus): 25 µg/mL (≈ 50.7 µM)
- MIC (Pseudomonas aeruginosa [2]): 25 µg/mL (≈ 50.7 µM)
- MIC (Pseudomonas aeruginosa [3]): > 100 µg/mL
- MIC (Serratia marcescens): > 100 µg/mL
- MIC (Escherichia coli [4]): > 100 µg/mL
- MIC (Escherichia coli [5]): > 100 µg/mL
- MIC (Micrococcus luteus): > 100 µg/mL
- MIC (Escherichia coli [6]): 50 µg/mL (≈ 101 µM)
- MIC [7]: 3.13 µg/mL (≈ 6.34 µM)

SMILES: NCC1CCC(N)C(OC2C(N)CC(NC(=O)[C@H](N)CCCN=C(N)N)C(OC3OC(CO)C(O)C(N)C3O)C2O)O1 (stereo not given in full)
- MIC (Bacillus subtilis): 3.13 µg/mL (≈ 5.15 µM)
- MIC (Staphylococcus aureus): 6.25 µg/mL (≈ 10.3 µM)
- MIC (Klebsiella pneumoniae): 100 µg/mL (≈ 165 µM)
- MIC (Pseudomonas aeruginosa [1]): > 100 µg/mL
- MIC (Bacillus cereus): 25 µg/mL (≈ 41.1 µM)
- MIC (Pseudomonas aeruginosa [2]): 100 µg/mL (≈ 165 µM)
- MIC (Pseudomonas aeruginosa [3]): > 100 µg/mL
- MIC (Serratia marcescens): > 100 µg/mL
- MIC (Escherichia coli [4]): > 100 µg/mL
- MIC (Escherichia coli [5]): > 100 µg/mL
- MIC (Micrococcus luteus): > 100 µg/mL
- MIC (Escherichia coli [6]): 100 µg/mL (≈ 165 µM)
- MIC [7]: 25 µg/mL (≈ 41.1 µM)

SMILES: NCC1CCC(N)C(OC2C(N)CC(NC(=O)CCCN=C(N)N)C(OC3OC(CO)C(O)C(N)C3O)C2O)O1 (stereo not given)
- MIC (Bacillus subtilis): 1.56 µg/mL (≈ 2.7 µM)
- MIC (Staphylococcus aureus): 1.56 µg/mL (≈ 2.7 µM)
- MIC (Klebsiella pneumoniae): 12.5 µg/mL (≈ 21.6 µM)
- MIC (Pseudomonas aeruginosa [1]): > 100 µg/mL
- MIC (Bacillus cereus): 6.25 µg/mL (≈ 10.8 µM)
- MIC (Pseudomonas aeruginosa [2]): 6.25 µg/mL (≈ 10.8 µM)
- MIC (Pseudomonas aeruginosa [3]): > 100 µg/mL
- MIC (Serratia marcescens): > 100 µg/mL
- MIC (Escherichia coli [4]): 50 µg/mL (≈ 86.4 µM)
- MIC (Escherichia coli [5]): 25 µg/mL (≈ 43.2 µM)
- MIC (Micrococcus luteus): 100 µg/mL (≈ 173 µM)
- MIC (Escherichia coli [6]): 12.5 µg/mL (≈ 21.6 µM)
- MIC [7]: 6.25 µg/mL (≈ 10.8 µM)

Further molecules by falling MIC (Bacillus subtilis), results first:

- MIC (Bacillus subtilis): 0.78 µg/mL (≈ 1.45 µM)
- MIC (Staphylococcus aureus): 1.56 µg/mL (≈ 2.91 µM)
- MIC (Klebsiella pneumoniae): 12.5 µg/mL (≈ 23.3 µM)
- MIC (Pseudomonas aeruginosa [1]): > 100 µg/mL
- MIC (Bacillus cereus): 6.25 µg/mL (≈ 11.6 µM)
- MIC (Pseudomonas aeruginosa [2]): 3.13 µg/mL (≈ 5.83 µM)
- MIC (Pseudomonas aeruginosa [3]): > 100 µg/mL
- MIC (Serratia marcescens): > 100 µg/mL
- MIC (Escherichia coli [4]): 25 µg/mL (≈ 46.6 µM)
- MIC (Escherichia coli [5]): 25 µg/mL (≈ 46.6 µM)
- MIC (Micrococcus luteus): 100 µg/mL (≈ 186 µM)
- MIC (Escherichia coli [6]): 12.5 µg/mL (≈ 23.3 µM)
- MIC [7]: 6.25 µg/mL (≈ 11.6 µM)
SMILES: NCCCC(=O)NC1CC(N)C(OC2OC(CN)CCC2N)C(O)C1OC1OC(CO)C(O)C(N)C1O (stereo not given)

- MIC (Bacillus subtilis): 0.1 µg/mL (≈ 0.168 µM)
- MIC (Staphylococcus aureus): 0.2 µg/mL (≈ 0.336 µM)
- MIC (Klebsiella pneumoniae): 1.56 µg/mL (≈ 2.62 µM)
- MIC (Pseudomonas aeruginosa [1]): > 100 µg/mL
- MIC (Bacillus cereus): 0.78 µg/mL (≈ 1.31 µM)
- MIC (Pseudomonas aeruginosa [2]): 0.39 µg/mL (≈ 0.656 µM)
- MIC (Pseudomonas aeruginosa [3]): 12.5 µg/mL (≈ 21 µM)
- MIC (Serratia marcescens): 25 µg/mL (≈ 42 µM)
- MIC (Escherichia coli [4]): 3.13 µg/mL (≈ 5.26 µM)
- MIC (Escherichia coli [5]): 1.56 µg/mL (≈ 2.62 µM)
- MIC (Micrococcus luteus): 12.5 µg/mL (≈ 21 µM)
- MIC (Escherichia coli [6]): 0.78 µg/mL (≈ 1.31 µM)
- MIC [7]: 0.39 µg/mL (≈ 0.656 µM)
SMILES: NCC1CCC(N)C(OC2C(N)CC(NC(=O)[C@H](O)CCN=C(N)N)C(OC3OC(CO)C(O)C(N)C3O)C2O)O1 (stereo not given in full)
